Data: PubChem BioAssay (NCI)
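96-well plates; 48 h exposure; 5 concentrations. Endpoints by linear interpolation between flanking doses. Not reached: highest tested concentration assigned. Abbreviation: GI50, concentration required for 50% inhibition of growth. TGI: concentration producing complete growth inhibition.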

Columns and labels:
Experiment in all cases: NCI tumour cell line growth inhibition, 48 h
786-0 renal = tested on: 786-0 renal
A498 renal = tested on: A498 renal
A549 NSCLC = tested on: A549 NSCLC
ACHN renal = tested on: ACHN renal
BT-549 breast = tested on: BT-549 breast
CAKI-1 renal = tested on: CAKI-1 renal
CCRF-CEM leukemia = tested on: CCRF-CEM leukemia
COLO 205 colon = tested on: COLO 205 colon
DU-145 prostate = tested on: DU-145 prostate
EKVX NSCLC = tested on: EKVX NSCLC
HCT-116 colon = tested on: HCT-116 colon
HCT-15 colon = tested on: HCT-15 colon
HL-60(TB) leukemia = tested on: HL-60(TB) leukemia
HOP-62 NSCLC = tested on: HOP-62 NSCLC
HS 578T breast = tested on: HS 578T breast
HT29 colon = tested on: HT29 colon
IGROV1 ovarian = tested on: IGROV1 ovarian
K-562 leukemia = tested on: K-562 leukemia
KM12 colon = tested on: KM12 colon
LOX IMVI melanoma = tested on: LOX IMVI melanoma
M14 melanoma = tested on: M14 melanoma
MALME-3M melanoma = tested on: MALME-3M melanoma
MCF7 breast = tested on: MCF7 breast
MDA-MB-231 breast = tested on: MDA-MB-231 breast
MDA-MB-435 = tested on: MDA-MB-435
MOLT-4 leukemia = tested on: MOLT-4 leukemia
NCI-H226 lung = tested on: NCI-H226 lung
NCI-H23 lung = tested on: NCI-H23 lung
NCI-H460 lung = tested on: NCI-H460 lung
NCI-H522 lung = tested on: NCI-H522 lung
NCI/ADR-RES ovarian = tested on: NCI/ADR-RES ovarian
OVCAR-3 ovarian = tested on: OVCAR-3 ovarian
OVCAR-4 ovarian = tested on: OVCAR-4 ovarian
OVCAR-5 ovarian = tested on: OVCAR-5 ovarian
OVCAR-8 ovarian = tested on: OVCAR-8 ovarian
PC-3 prostate = tested on: PC-3 prostate
RPMI-8226 leukemia = tested on: RPMI-8226 leukemia
SF-268 CNS = tested on: SF-268 CNS
SF-295 CNS = tested on: SF-295 CNS
SF-539 CNS = tested on: SF-539 CNS
SK-MEL-2 melanoma = tested on: SK-MEL-2 melanoma
SK-MEL-28 melanoma = tested on: SK-MEL-28 melanoma
SK-MEL-5 melanoma = tested on: SK-MEL-5 melanoma
SK-OV-3 ovarian = tested on: SK-OV-3 ovarian
SN12C renal = tested on: SN12C renal
SNB-19 CNS = tested on: SNB-19 CNS
SNB-75 CNS = tested on: SNB-75 CNS
SR leukemia = tested on: SR leukemia
T-47D breast = tested on: T-47D breast
TK-10 renal = tested on: TK-10 renal
U251 CNS = tested on: U251 CNS
UACC-257 melanoma = tested on: UACC-257 melanoma
UACC-62 melanoma = tested on: UACC-62 melanoma
UO-31 renal = tested on: UO-31 renal
HCC-2998 colon = tested on: HCC-2998 colon
HOP-92 NSCLC = tested on: HOP-92 NSCLC
RXF 393 renal = tested on: RXF 393 renal
SW-620 colon = tested on: SW-620 colon

O=C(Nc1cc(Cl)cc(Cl)c1)c1ccc(NC2=C(Cl)C(=O)N(Cc3ccccc3)C2=O)cc1
GI50 (786-0 renal): 2.87 µM
TGI (786-0 renal): 8.74 µM
GI50 (A498 renal): 8.06 µM
TGI (A498 renal): 22.2 µM
GI50 (A549 NSCLC): 10.8 µM
TGI (A549 NSCLC): 32.4 µM
GI50 (ACHN renal): 1.82 µM
TGI (ACHN renal): 7.77 µM
GI50 (BT-549 breast): 4.59 µM
TGI (BT-549 breast): 19.3 µM
GI50 (CAKI-1 renal): 0.799 µM
TGI (CAKI-1 renal): 2.98 µM
GI50 (CCRF-CEM leukemia): 3.17 µM
TGI (CCRF-CEM leukemia): 12.1 µM
GI50 (COLO 205 colon): 28.6 µM
TGI (COLO 205 colon): > 100 µM
GI50 (DU-145 prostate): 0.96 µM
TGI (DU-145 prostate): 6.91 µM
GI50 (EKVX NSCLC): 13.9 µM
TGI (EKVX NSCLC): 28.7 µM
GI50 (HCT-116 colon): 0.743 µM
TGI (HCT-116 colon): 3.76 µM
GI50 (HCT-15 colon): 4.68 µM
TGI (HCT-15 colon): 19.7 µM
GI50 (HL-60(TB) leukemia): 1.55 µM
TGI (HL-60(TB) leukemia): 4.43 µM
GI50 (HOP-62 NSCLC): 4.21 µM
TGI (HOP-62 NSCLC): 17.8 µM
GI50 (HS 578T breast): 1.99 µM
TGI (HS 578T breast): 5.49 µM
GI50 (HT29 colon): 16.8 µM
TGI (HT29 colon): > 100 µM
GI50 (IGROV1 ovarian): 1.57 µM
TGI (IGROV1 ovarian): 3.32 µM
GI50 (K-562 leukemia): 2.31 µM
TGI (K-562 leukemia): 6.93 µM
GI50 (KM12 colon): 6.43 µM
TGI (KM12 colon): 26.2 µM
GI50 (LOX IMVI melanoma): 2.21 µM
TGI (LOX IMVI melanoma): 5.86 µM
GI50 (M14 melanoma): 9.37 µM
TGI (M14 melanoma): 24.2 µM
GI50 (MALME-3M melanoma): 14.6 µM
TGI (MALME-3M melanoma): 30.4 µM
GI50 (MCF7 breast): 1.29 µM
TGI (MCF7 breast): 4.86 µM
GI50 (MDA-MB-231 breast): 5.74 µM
TGI (MDA-MB-231 breast): 22.4 µM
GI50 (MDA-MB-435): 11.7 µM
TGI (MDA-MB-435): 25.2 µM
GI50 (MOLT-4 leukemia): 1.51 µM
TGI (MOLT-4 leukemia): 4.91 µM
GI50 (NCI-H226 lung): 11.5 µM
TGI (NCI-H226 lung): 25.1 µM
GI50 (NCI-H23 lung): 4.16 µM
TGI (NCI-H23 lung): 16.3 µM
GI50 (NCI-H460 lung): 1.8 µM
TGI (NCI-H460 lung): 4.51 µM
GI50 (NCI-H522 lung): 7.78 µM
TGI (NCI-H522 lung): 25.7 µM
GI50 (NCI/ADR-RES ovarian): 11.3 µM
TGI (NCI/ADR-RES ovarian): 26.7 µM
GI50 (OVCAR-3 ovarian): 1.99 µM
TGI (OVCAR-3 ovarian): 5.37 µM
GI50 (OVCAR-4 ovarian): 18.6 µM
TGI (OVCAR-4 ovarian): > 100 µM
GI50 (OVCAR-5 ovarian): 4.68 µM
TGI (OVCAR-5 ovarian): 17.8 µM
GI50 (OVCAR-8 ovarian): 2.62 µM
TGI (OVCAR-8 ovarian): 6.32 µM
GI50 (PC-3 prostate): 3.29 µM
TGI (PC-3 prostate): 12.7 µM
GI50 (RPMI-8226 leukemia): 1.74 µM
TGI (RPMI-8226 leukemia): 4.2 µM
GI50 (SF-268 CNS): 2.55 µM
TGI (SF-268 CNS): 7.46 µM
GI50 (SF-295 CNS): 2.49 µM
TGI (SF-295 CNS): 13.6 µM
GI50 (SF-539 CNS): 3.5 µM
TGI (SF-539 CNS): 13.7 µM
GI50 (SK-MEL-2 melanoma): 12.7 µM
TGI (SK-MEL-2 melanoma): 33.9 µM
GI50 (SK-MEL-28 melanoma): 41.9 µM
TGI (SK-MEL-28 melanoma): > 100 µM
GI50 (SK-MEL-5 melanoma): 1.57 µM
TGI (SK-MEL-5 melanoma): 3.19 µM
GI50 (SK-OV-3 ovarian): 22 µM
TGI (SK-OV-3 ovarian): 73.7 µM
GI50 (SN12C renal): 6.83 µM
TGI (SN12C renal): 22.6 µM
GI50 (SNB-19 CNS): 41.7 µM
TGI (SNB-19 CNS): > 100 µM
GI50 (SNB-75 CNS): 35.4 µM
TGI (SNB-75 CNS): 74.5 µM
GI50 (SR leukemia): 1.51 µM
TGI (SR leukemia): 4.81 µM
GI50 (T-47D breast): 30.9 µM
TGI (T-47D breast): > 100 µM
GI50 (TK-10 renal): 19.5 µM
TGI (TK-10 renal): 51.5 µM
GI50 (U251 CNS): 3.04 µM
TGI (U251 CNS): 12.8 µM
GI50 (UACC-257 melanoma): 11.5 µM
TGI (UACC-257 melanoma): 27.1 µM
GI50 (UACC-62 melanoma): 4.13 µM
TGI (UACC-62 melanoma): 16.7 µM
GI50 (UO-31 renal): 2.29 µM
TGI (UO-31 renal): 6.01 µM

COc1cc2c(/C=C3/C(=O)Nc4c3ccc3ccccc43)c(Cl)[nH]c2cc1C
GI50 (786-0 renal): 0.0598 µM
TGI (786-0 renal): > 24.2 µM
GI50 (A498 renal): > 50 µM
TGI (A498 renal): > 50 µM
GI50 (A549 NSCLC): 0.0443 µM
TGI (A549 NSCLC): 0.778 µM
GI50 (ACHN renal): 0.0261 µM
TGI (ACHN renal): 6.92 µM
GI50 (BT-549 breast): 0.0254 µM
TGI (BT-549 breast): > 50 µM
GI50 (CAKI-1 renal): 0.00894 µM
GI50 (COLO 205 colon): 0.0715 µM
GI50 (DU-145 prostate): 0.165 µM
TGI (DU-145 prostate): > 15.7 µM
GI50 (EKVX NSCLC): 0.222 µM
TGI (EKVX NSCLC): > 36.3 µM
GI50 (HCC-2998 colon): < 0.005 µM
TGI (HCC-2998 colon): < 0.005 µM
GI50 (HCT-116 colon): 0.0078 µM
GI50 (HCT-15 colon): 0.0427 µM
TGI (HCT-15 colon): 0.143 µM
GI50 (HL-60(TB) leukemia): 0.0115 µM
TGI (HL-60(TB) leukemia): 0.661 µM
GI50 (HOP-62 NSCLC): 0.0144 µM
TGI (HOP-62 NSCLC): 4.08 µM
TGI (HOP-92 NSCLC): > 31.1 µM
GI50 (HS 578T breast): 0.289 µM
GI50 (HT29 colon): 0.0246 µM
TGI (HT29 colon): > 50 µM
GI50 (IGROV1 ovarian): 0.0125 µM
GI50 (K-562 leukemia): < 0.005 µM
TGI (K-562 leukemia): 0.58 µM
GI50 (KM12 colon): 0.0124 µM
GI50 (LOX IMVI melanoma): 0.00548 µM
TGI (LOX IMVI melanoma): 0.0304 µM
GI50 (M14 melanoma): 0.0119 µM
TGI (M14 melanoma): 0.032 µM
GI50 (MCF7 breast): 0.0342 µM
TGI (MCF7 breast): > 50 µM
GI50 (MDA-MB-231 breast): 0.0366 µM
GI50 (MDA-MB-435): 0.00618 µM
TGI (MDA-MB-435): 0.0238 µM
GI50 (NCI-H226 lung): 0.249 µM
TGI (NCI-H226 lung): 33.2 µM
GI50 (NCI-H23 lung): 0.0152 µM
TGI (NCI-H23 lung): 4.59 µM
GI50 (NCI-H460 lung): 0.0244 µM
TGI (NCI-H460 lung): > 21.8 µM
GI50 (NCI-H522 lung): 0.0123 µM
GI50 (NCI/ADR-RES ovarian): 0.0139 µM
TGI (NCI/ADR-RES ovarian): 1.09 µM
GI50 (OVCAR-3 ovarian): 0.00854 µM
TGI (OVCAR-3 ovarian): 0.0294 µM
GI50 (OVCAR-5 ovarian): 10.2 µM
TGI (OVCAR-5 ovarian): > 50 µM
GI50 (OVCAR-8 ovarian): 0.0176 µM
TGI (OVCAR-8 ovarian): 1.82 µM
GI50 (PC-3 prostate): 0.0152 µM
TGI (PC-3 prostate): > 16.8 µM
GI50 (RPMI-8226 leukemia): 0.0144 µM
GI50 (RXF 393 renal): 0.0999 µM
TGI (RXF 393 renal): 33.4 µM
GI50 (SF-268 CNS): 0.0218 µM
TGI (SF-268 CNS): > 14.6 µM
GI50 (SF-295 CNS): 0.00761 µM
TGI (SF-295 CNS): 0.0237 µM
GI50 (SF-539 CNS): 0.0106 µM
TGI (SF-539 CNS): 0.119 µM
GI50 (SK-MEL-2 melanoma): 0.872 µM
TGI (SK-MEL-2 melanoma): > 30.1 µM
GI50 (SK-MEL-28 melanoma): 17.3 µM
TGI (SK-MEL-28 melanoma): > 50 µM
GI50 (SK-MEL-5 melanoma): 0.103 µM
TGI (SK-MEL-5 melanoma): 0.284 µM
GI50 (SK-OV-3 ovarian): 0.0364 µM
TGI (SK-OV-3 ovarian): > 50 µM
GI50 (SN12C renal): 0.071 µM
TGI (SN12C renal): > 19.6 µM
GI50 (SNB-19 CNS): 0.0402 µM
TGI (SNB-19 CNS): > 50 µM
GI50 (SR leukemia): < 0.005 µM
TGI (SR leukemia): < 0.005 µM
GI50 (SW-620 colon): 0.0781 µM
TGI (SW-620 colon): > 50 µM
GI50 (T-47D breast): > 50 µM
TGI (T-47D breast): > 50 µM
GI50 (TK-10 renal): 30.5 µM
TGI (TK-10 renal): > 50 µM
GI50 (U251 CNS): 0.0559 µM
TGI (U251 CNS): 9.94 µM
GI50 (UACC-257 melanoma): 0.316 µM
TGI (UACC-257 melanoma): > 50 µM
GI50 (UACC-62 melanoma): 0.0119 µM
TGI (UACC-62 melanoma): > 19.8 µM
GI50 (UO-31 renal): 0.0216 µM
TGI (UO-31 renal): > 34.1 µM
